Test results reported in US20260159536A1, “AKR1C3-ACTIVATED DNA ALKYLATING AGENT, AND MEDICAL APPLICATION THEREOF” (ASCENTAWITS PHARMACEUTICALS, LTD., priority 2021, published 2026).
Where two headings read alike, the source gives them in different places.

Tests used:
in vitro = conditions: for metabolite AST-2660 detection: from Compound A
Method: (1) Compound A for test, progesterone positive control, and 100 mM stock solutions of AST-3021 inhibitor were prepared and stored in the freezer (−10° C. to −30° C.).
1) Negative control group: at different time points (0 and 60 min), 30 μL/well of hepatocyte cytosol suspension containing 7.5 μM of sample for test was distributed in a 96-well plate. Three replicate wells were prepared in parallel.
2) Positive control group: at different time points (0, 5, 15, 30, 45 and 60 min), 30 μL/well of hepatocyte cytosol suspension containing 7.5 μM of the positive control was distributed in a 96-well plate. Three replicate wells were prepared in parallel.
3) Normal reaction group: at different time points (0, 5, 15, 30, 45 and 60 min), 30 μL/well of hepatocyte cytosol suspension containing 7.5 μM of sample for test was distributed in a 96-well plate. Three replicate wells were prepared in parallel.
4) Inhibition reaction group: at different time points (0, 5, 15, 30, 45 and 60 min), 30 μL/well of hepatocyte cytosol suspension containing […] of sample for test and 4.5 μM of the inhibitor was distributed in a 96-well plate. Three replicate wells were prepared in parallel.
6) 0 min samples: after 150 μL/well of acetonitrile containing the internal standard was added, then 15 μL/well of pre-heated NADPH working solution was added to the samples of normal reaction group, inhibition reaction group and positive control group, and 15 μL/well of pre-heated potassium phosphate buffer was added to the samples of negative control group.
7) Other samples (5, 15, 30, 45 and 60 min): for normal reaction group, inhibition reaction group and positive control group, 15 μL/well of pre-heated NADPH working solution was added to start the reaction; for negative control group, 15 μL/well of pre-heated potassium phosphate buffer was added. The reaction plates were then continued to incubate in a 37° C. water bath and the reactions were stopped by the addition of 150 μL/well of stop solution at the corresponding time points (5, 15, 30, 45 and 60 min).
The concentration of analyte in each sample was expressed as a peak area ratio (peak area analyte/peak areainternal standard), then the peak area ratio at 0 min was used as a reference to calculate the % Remaining at each time point of the incubation, and the ln logarithmic value of the % Remaining was linearly fitted to the incubation time and the half-life was calculated according to the following formula.
In the absence of AST-3021, 5 μM of progesterone was co-incubated with 2 mM of NADPH and 1 mg/mL of hepatocyte cytosol for 0-60 min as a positive control.

[1] = test system: HuPrime model GA6201 human gastric cancer; conditions: for Tumor volume: 60 mg/kg i.p.
Method: The test was divided into groups of the test drug Isocyclophosphamide 60 mg/kg group, the test drug AST-3424 5 mg/kg group, the test drug A compound 2.5 mg/kg and 5 mg/kg groups, and normal saline (pH 7.0-7.6) vehicle control group, a total of 5 groups, with 5 mice per group.
In the above dosing regimen, Isocyclophosphamide was designed based on the best dosing regimen with maximum safe dosage as recited in the document (Jessica D. Sun, Qian Liu, Dharmendra Ahluwalia, Damien J. Ferraro, Yan Wang, Don Jung, Mark D. Matteucci, and Charles P. Hart. Comparison of hypoxia-activated prodrug evofosfamide (TH-302) and ifosfamide in preclinical non-small cell lung cancer models [J]. Cancer Biology & Therapy, 2016, 17(4): 371-380).

[2] = 60 mg/kg i.p. 5 days on, 2 days off, 2 weeks, Day 38

Compound: O=P(O)(N1CC1)N1CC1 [AST-2660]
- metabolite AST-2660 detection (in vitro; human, no NADPH, no AST-3021): not detected
- metabolite AST-2660 detection (in vitro; human, with NADPH): a small amount
- metabolite AST-2660 detection (in vitro; human, with NADPH and AST-3021): not detected
- metabolite AST-2660 detection (in vitro; monkey, no NADPH, no AST-3021): not detected
- metabolite AST-2660 detection (in vitro; monkey, with NADPH): a small amount
- metabolite AST-2660 detection (in vitro; monkey, with NADPH and AST-3021): detected in only one monkey 60-min sample
- metabolite AST-2660 detection (in vitro; mouse, no NADPH, no AST-3021): not detected
- metabolite AST-2660 detection (in vitro; mouse, with NADPH): not detected
- metabolite AST-2660 detection (in vitro; mouse, with NADPH and AST-3021): not detected
- metabolite AST-2660 detection (in vitro; rat, no NADPH, no AST-3021): not detected
- metabolite AST-2660 detection (in vitro; rat, with NADPH): not detected
- metabolite AST-2660 detection (in vitro; rat, with NADPH and AST-3021): not detected

Compound: O=P1(NCCCl)OCCCN1CCCl (centres unmarked) [Isocyclophosphamide, reference compound]
- Relative tumor volume (x ± S) [1, 2]: 3.85 ± 0.63
- T/C (%) [1, 2]: 41.17%
- TGI (%) [1, 2]: 58.83%
- Tumor volume (x ± S) [1, 2]: 371.02 ± 75.96
- Tumor volume ([1]; 0 day): 94.15 mm^3
- Tumor volume ([1]; 3 days): 122.22 mm^3
- Tumor volume ([1]; 7 days): 129.39 mm^3
- Tumor volume ([1]; 10 days): 175.00 mm^3
- Tumor volume ([1]; 14 days): 190.74 mm^3
- Tumor volume ([1]; 17 days): 189.23 mm^3
- Tumor volume ([1]; 21 days): 217.96 mm^3
- Tumor volume ([1]; 24 days): 225.66 mm^3
- Tumor volume ([1]; 28 days): 247.04 mm^3
- Tumor volume ([1]; 31 days): 265.76 mm^3
- Tumor volume ([1]; 35 days): 324.51 mm^3
- Tumor volume ([1]; 38 days): 371.02 mm^3
- Tumor volume ([1]; 42 days): 403.47 mm^3
- Tumor volume ([1]; 45 days): 484.83 mm^3
- Tumor volume ([1]; 49 days): 578.60 mm^3

Compound: CC(=O)[C@H]1CC[C@H]2[C@@H]3CCC4=CC(=O)CC[C@]4(C)[C@H]3CC[C@]12C [Progesterone]
- half-life at 5 µM (in vitro; CD-1, mouse, hepatocyte cytosol, Metabolic parameter t1/2, mouse, 2 mM NADPH, no AST-3021 (normal reaction / positive control group), 5 μM): 37.7 min
- half-life at 5 µM (in vitro; SD, rat, hepatocyte cytosol, Metabolic parameter t1/2, rat, 2 mM NADPH, no AST-3021 (normal reaction / positive control group), 5 μM): 22.3 min
- half-life at 5 µM (in vitro; cynomolgus (printed as 'machins'), monkey, cytosol): 13.2 min
- Metabolic parameter k (in vitro; human, 2 mM NADPH, no AST-3021 (normal reaction / positive control group), 5 μM): 0.0543
- average % Remaining (in vitro; human, 2 mM NADPH, no AST-3021 (normal reaction / positive control group), 5 μM, 0 min): 100.00%
- average % Remaining (in vitro; human, 2 mM NADPH, no AST-3021 (normal reaction / positive control group), 5 μM, 5 min): 80.76%
- average % Remaining (in vitro; human, 2 mM NADPH, no AST-3021 (normal reaction / positive control group), 5 μM, 15 min): 55.69%
- average % Remaining (in vitro; human, 2 mM NADPH, no AST-3021 (normal reaction / positive control group), 5 μM, 30 min): 20.59%
- average % Remaining (in vitro; human, 2 mM NADPH, no AST-3021 (normal reaction / positive control group), 5 μM, 45 min): 7.72%
- average % Remaining (in vitro; human, 2 mM NADPH, no AST-3021 (normal reaction / positive control group), 5 μM, 60 min): 0.46%
- Metabolic parameter k (in vitro; monkey, 2 mM NADPH, no AST-3021 (normal reaction / positive control group), 5 μM): 0.0525
- average % Remaining (in vitro; monkey, 2 mM NADPH, no AST-3021 (normal reaction / positive control group), 5 μM, 0 min): 100.00%
- average % Remaining (in vitro; monkey, 2 mM NADPH, no AST-3021 (normal reaction / positive control group), 5 μM, 5 min): 82.47%
- average % Remaining (in vitro; monkey, 2 mM NADPH, no AST-3021 (normal reaction / positive control group), 5 μM, 15 min): 59.82%
- average % Remaining (in vitro; monkey, 2 mM NADPH, no AST-3021 (normal reaction / positive control group), 5 μM, 30 min): 28.19%
- average % Remaining (in vitro; monkey, 2 mM NADPH, no AST-3021 (normal reaction / positive control group), 5 μM, 45 min): 10.01%
- average % Remaining (in vitro; monkey, 2 mM NADPH, no AST-3021 (normal reaction / positive control group), 5 μM, 60 min): 3.26%
- Metabolic parameter k (in vitro; mouse, 2 mM NADPH, no AST-3021 (normal reaction / positive control group), 5 μM): 0.0184
- average % Remaining (in vitro; mouse, 2 mM NADPH, no AST-3021 (normal reaction / positive control group), 5 μM, 0 min): 100.00%
- average % Remaining (in vitro; mouse, 2 mM NADPH, no AST-3021 (normal reaction / positive control group), 5 μM, 5 min): 89.61%
- average % Remaining (in vitro; mouse, 2 mM NADPH, no AST-3021 (normal reaction / positive control group), 5 μM, 15 min): 78.52%
- average % Remaining (in vitro; mouse, 2 mM NADPH, no AST-3021 (normal reaction / positive control group), 5 μM, 30 min): 62.61%
- average % Remaining (in vitro; mouse, 2 mM NADPH, no AST-3021 (normal reaction / positive control group), 5 μM, 45 min): 44.84%
- average % Remaining (in vitro; mouse, 2 mM NADPH, no AST-3021 (normal reaction / positive control group), 5 μM, 60 min): 31.03%
- Metabolic parameter k (in vitro; rat, 2 mM NADPH, no AST-3021 (normal reaction / positive control group), 5 μM): 0.0311
- average % Remaining (in vitro; rat, 2 mM NADPH, no AST-3021 (normal reaction / positive control group), 5 μM, 0 min): 100.00%
- average % Remaining (in vitro; rat, 2 mM NADPH, no AST-3021 (normal reaction / positive control group), 5 μM, 5 min): 84.80%
- average % Remaining (in vitro; rat, 2 mM NADPH, no AST-3021 (normal reaction / positive control group), 5 μM, 15 min): 69.77%
- average % Remaining (in vitro; rat, 2 mM NADPH, no AST-3021 (normal reaction / positive control group), 5 μM, 30 min): 45.51%
- average % Remaining (in vitro; rat, 2 mM NADPH, no AST-3021 (normal reaction / positive control group), 5 μM, 45 min): 21.61%
- average % Remaining (in vitro; rat, 2 mM NADPH, no AST-3021 (normal reaction / positive control group), 5 μM, 60 min): 4.70%
